Drawing on patent US8633206B2, “Pyrrolo[2,3-D]pyrimidine compounds” (Pfizer Inc., priority 2009, dated 2014), this text covers IC50 for 21 compounds.

The structures appear in SMILES notation.

The IC50 is the midpoint of a concentration-inhibition curve.

What all share (type): biochemical
In assay [1] the target is JAK2 (Homo sapiens (Human), UniProt O60674). The experiment in a line: JAK enzymatic assay (peptide mobility shift), JAK2. As to conditions: recombinant JAK2 2 nM, JAKtide peptide, 150 minutes. The source says:
Recombinant JAK1 (Catalog Number PV4775), JAK2 (Catalog Number PV4210) and JAK3 (Catalog Number PV3855) were purchased from (Invitrogen Corporation, Madison, Wis.). Tyk2 (His-Tyk2 (888-1182, C936S, C1142S)) used in this study was expressed and purified at Pfizer Laboratories. Adenosine 5′-triphosphate (ATP) was obtained from (Sigma Chemical Company, St. Louis, Mo.). […] Coating Reagent 3 was purchased from (Caliper Life Sciences, Hopkinton, Mass.).
A peptide mobility shift assay was used to quantify the phosphorylation of the JAKtide (JAK2 and JAK3) or the IRS-1 peptide (JAK1 and Tyk2). Reactions were carried out in a 384-well plate (Matrical MP-101) in a 10 L total volume. […] Compounds were diluted serially in 100% dimethyl sulfoxide and tested in an 11 point dose response in duplicate or quadruplicate (200 nl of compound/DMSO was added per 10 L reaction). The reactions were initiated by the addition of enzyme to the final concentration of 2 nM JAK2, 1 nM JAK3, 12 nM Tyk2 or 20 nM JAK1. The assay was run for 240 minutes for JAK1, 150 minutes for JAK2, 90 minutes for JAK3 and 70 minutes for Tyk2. The assays were stopped at the specified times with 20 uL of 140 mM HEPES, 22.5 mM EDTA and 0.15% Coating Reagent 3. The plates were placed on a LabChip 3000 (LC3000) instrument from (Caliper Life Sciences) to measure the formation of phosphorylated peptide. Data was analyzed using Hits Well Analyzer Software from (Caliper Life Sciences) to obtain the amount of product formed.
(§1) Data was then imported into an internal application where each data point is expressed as % inhibition based on uninhibited and no enzyme controls. Dose-response data is then fit using a 4 parameter logistic equation (Equation 1) to determine an IC50.

Assay [2] has as its target JAK3 (Homo sapiens (Human), UniProt P52333). The experiment in a line: JAK enzymatic assay (peptide mobility shift), JAK3. The following applies: recombinant JAK3 1 nM, JAKtide peptide, 90 minutes. As for the experimental part: (§2) Recombinant JAK1 (Catalog Number PV4775), JAK2 (Catalog Number PV4210) and JAK3 (Catalog Number PV3855) were purchased from (Invitrogen Corporation, Madison, Wis.). […] Adenosine 5′-triphosphate (ATP) was obtained from (Sigma Chemical Company, St. Louis, Mo.). […] Coating Reagent 3 was purchased from (Caliper Life Sciences, Hopkinton, Mass.).
(§3) Compounds were diluted serially in 100% dimethyl sulfoxide and tested in an 11 point dose response in duplicate or quadruplicate (200 nl of compound/DMSO was added per 10 L reaction). […] The assay was run for 240 minutes for JAK1, 150 minutes for JAK2, 90 minutes for JAK3 and 70 minutes for Tyk2. […] The plates were placed on a LabChip 3000 (LC3000) instrument from (Caliper Life Sciences) to measure the formation of phosphorylated peptide. Data was analyzed using Hits Well Analyzer Software from (Caliper Life Sciences) to obtain the amount of product formed.
as §1

The target in assay [3] is JAK1 (Homo sapiens (Human), UniProt P23458). The assay can be described thus: JAK enzymatic assay (peptide mobility shift), JAK1. As to conditions: recombinant JAK1 20 nM, IRS-1 peptide, 240 minutes. The procedure: as §2, §3, §1
JAK1, sequence (P23458 whole entry): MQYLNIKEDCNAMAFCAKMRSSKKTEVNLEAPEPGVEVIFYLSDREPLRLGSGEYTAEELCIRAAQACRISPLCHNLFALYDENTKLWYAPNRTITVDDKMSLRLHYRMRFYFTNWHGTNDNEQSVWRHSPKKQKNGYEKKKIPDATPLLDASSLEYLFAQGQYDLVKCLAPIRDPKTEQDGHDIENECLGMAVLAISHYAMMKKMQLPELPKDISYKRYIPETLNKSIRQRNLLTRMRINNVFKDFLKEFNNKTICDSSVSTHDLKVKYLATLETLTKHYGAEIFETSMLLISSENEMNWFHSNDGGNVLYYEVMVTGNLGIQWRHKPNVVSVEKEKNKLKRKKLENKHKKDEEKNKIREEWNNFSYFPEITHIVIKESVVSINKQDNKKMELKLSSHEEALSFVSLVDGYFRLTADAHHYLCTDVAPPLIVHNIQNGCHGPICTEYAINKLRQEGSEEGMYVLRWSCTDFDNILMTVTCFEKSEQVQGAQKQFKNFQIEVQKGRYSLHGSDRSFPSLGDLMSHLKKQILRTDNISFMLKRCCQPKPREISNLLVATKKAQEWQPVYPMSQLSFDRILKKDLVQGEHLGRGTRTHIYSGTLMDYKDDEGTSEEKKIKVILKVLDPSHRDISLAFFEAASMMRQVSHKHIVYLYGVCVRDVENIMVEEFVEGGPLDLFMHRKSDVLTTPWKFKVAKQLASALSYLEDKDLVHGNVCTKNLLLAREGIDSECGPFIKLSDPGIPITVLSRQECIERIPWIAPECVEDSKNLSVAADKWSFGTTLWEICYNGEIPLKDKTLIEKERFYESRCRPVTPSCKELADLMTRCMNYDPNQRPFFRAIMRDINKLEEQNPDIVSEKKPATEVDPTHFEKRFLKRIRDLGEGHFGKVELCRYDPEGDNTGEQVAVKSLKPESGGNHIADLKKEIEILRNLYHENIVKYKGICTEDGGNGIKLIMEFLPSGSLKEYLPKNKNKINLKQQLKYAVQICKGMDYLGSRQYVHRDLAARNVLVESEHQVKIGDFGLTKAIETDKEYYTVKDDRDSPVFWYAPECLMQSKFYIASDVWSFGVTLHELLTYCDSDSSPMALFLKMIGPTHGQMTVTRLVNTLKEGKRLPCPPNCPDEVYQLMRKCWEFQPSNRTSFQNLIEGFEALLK

JAK2, sequence (O60674 808-1132): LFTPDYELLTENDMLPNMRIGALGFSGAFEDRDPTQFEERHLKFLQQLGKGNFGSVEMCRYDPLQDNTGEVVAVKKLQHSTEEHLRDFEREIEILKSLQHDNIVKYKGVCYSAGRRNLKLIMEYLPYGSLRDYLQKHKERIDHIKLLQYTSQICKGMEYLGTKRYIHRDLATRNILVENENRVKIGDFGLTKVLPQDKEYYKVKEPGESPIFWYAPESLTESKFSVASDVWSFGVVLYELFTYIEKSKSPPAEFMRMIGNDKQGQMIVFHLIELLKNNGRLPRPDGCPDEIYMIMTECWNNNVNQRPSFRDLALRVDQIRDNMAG
JAK3, sequence (P52333 781-1124): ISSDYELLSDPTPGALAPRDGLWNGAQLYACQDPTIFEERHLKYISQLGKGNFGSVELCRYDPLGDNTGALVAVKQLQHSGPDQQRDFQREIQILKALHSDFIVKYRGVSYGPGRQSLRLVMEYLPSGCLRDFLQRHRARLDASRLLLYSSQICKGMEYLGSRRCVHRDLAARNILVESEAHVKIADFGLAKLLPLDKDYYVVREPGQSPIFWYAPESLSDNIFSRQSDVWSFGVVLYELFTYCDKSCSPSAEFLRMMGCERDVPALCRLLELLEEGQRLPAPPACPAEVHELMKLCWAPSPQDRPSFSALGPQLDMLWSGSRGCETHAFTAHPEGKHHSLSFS

With `CCOC1CCCN(S(=O)(=O)CC2CCC(N(C)c3ncnc4[nH]ccc34)CC2)C1` (stereo not drawn) [Example 3, N-(trans-4-{[(3-ethoxypiperidin-1-yl)sulfonyl]methyl}cyclo-hexyl)-N-methyl-7H-pyrrolo[2,3-d]pyrimidin-4-amine], the IC50 was found to be 4.09 nM in assay [1], 31.7 nM in assay [2] and 1.2 nM in assay [3].
In the case of `CCC1(NC(=O)OCc2ccccc2)CCCN(S(=O)(=O)C[C@H]2CC[C@H](N(C)c3ncnc4[nH]ccc34)CC2)C1` (stereo partly drawn) [Example 4, benzyl {3-ethyl-1-[({trans-4-[methyl(7H-pyrrolo[2,3-d]pyrimidin-4-yl)amino]cyclohexyl}methyl)-sulfonyl]piperidin-3-yl}carbamate], the IC50 in assay [1] came to 71.7 nM; in assay [2], 846 nM; in assay [3], 44.6 nM.
`CC(=O)C1CCCN(S(=O)(=O)C[C@H]2CC[C@H](N(C)c3ncnc4[nH]ccc34)CC2)C1` (stereo partly drawn) [Example 5, 1-{1-[({trans-4-[methyl(7H-pyrrolo[2,3-d]pyrimidin-4-yl)amino]-cyclohexyl}methyl)sulfonyl]-piperidin-3-yl}ethanone]: the IC50 in assay [1] is 21.9 nM; in assay [2] it was 339 nM; in assay [3], 7.07 nM.
As to `CN(c1ncnc2[nH]ccc12)[C@H]1CC[C@H](CS(=O)(=O)N2CCCC(C(F)(F)F)C2)CC1` (stereo partly drawn) [Example 6, N-methyl-N-[trans-4-({[3-(trifluoromethyl)piperidin-1-yl]sulfonyl}methyl)-cyclohexyl]-7H-pyrrolo[2,3-d]pyrimidin-4-amine], the results for the half-maximal inhibitory concentration (IC50) in assay [1], in assay [2] and in assay [3] were 54.3 nM, 604 nM and 7.25 nM, respectively.
As to `CN(c1ncnc2[nH]ccc12)[C@H]1CC[C@H](CS(=O)(=O)N2CCCC(OCC(N)=O)C2)CC1` (stereo partly drawn) [Example 7, 2-({1-[({trans-4-[methyl-(7H-pyrrolo[2,3-d]-pyrimidin-4-yl)amino]-cyclohexyl}methyl)sulfonyl]-piperidin-3-yl}oxy)-acetamide], the 50% inhibitory concentration (IC50) came out at 18.3 nM in assay [1], 173 nM in assay [2] and 2.96 nM in assay [3].
As to `CN(c1ncnc2[nH]ccc12)[C@H]1CC[C@H](CS(=O)(=O)N2CCCC(CN3CCCC3)C2)CC1` (stereo partly drawn) [Example 8, N-methyl-N-[trans-4-({[3-(pyrrolidin-1-ylmethyl)-piperidin-1-yl]sulfonyl}-methyl)cyclohexyl]-7H-pyrrolo[2,3-d]pyrimidin-4-amine], the values for the IC50 in assay [2] and in assay [3] were 3280 nM and 14.8 nM, respectively.
For `CN(c1ncnc2[nH]ccc12)[C@H]1CC[C@H](CS(=O)(=O)N2CCC(N)CC2)CC1` [Example 11, N-(trans-4-{[(4-amino-piperidin-1-yl)sulfonyl]-methyl}cyclohexyl)-N-methyl-7H-pyrrolo[2,3-d]-pyrimidin-4-amine] the same measures were 2270 nM and 42.3 nM.
On to `CCOCCO[C@@H]1CCN(S(=O)(=O)C[C@H]2CC[C@H](N(C)c3ncnc4[nH]ccc34)CC2)C1` [Example 28, N-[trans-4-({[(3R)-3-(2-ethoxyethoxy)pyrrolidin-1-yl]sulfonyl}methyl)-cyclohexyl]-N-methyl-7H-pyrrolo[2,3-d]pyrimidin-4-amine], for which the IC50 was 16.8 nM in assay [1] and 6.31 nM in assay [3].
As for `CN(c1ncnc2[nH]ccc12)[C@H]1CC[C@H](CS(=O)(=O)N2CCC(CS(=O)(=O)CC3CC3)CC2)CC1` [Example 49, N-(trans-4-{[(4-{[(cyclopropylmethyl)sulfonyl]-methyl}piperidin-1-yl)sulfonyl]-methyl}-cyclohexyl)-N-methyl-7H-pyrrolo[2,3-d]pyrimidin-4-amine], the figures for the IC50 in assay [2] and in assay [3] were 491 nM and 11.7 nM, respectively.
Turning to `CC[C@H](O)C1CCN(S(=O)(=O)C[C@H]2CC[C@H](N(C)c3ncnc4[nH]ccc34)CC2)CC1` [Example 53, 1-{1-[({trans-4-[methyl(7H-pyrrolo[2,3-d]pyrimidin-4-yl)amino]cyclohexyl}-methyl)sulfonyl]piperidin-4-yl}propan-1-ol], the figures for the IC50 in assay [2] and in assay [3] were 673 nM and 22.8 nM, respectively.
Consider `CN(c1ncnc2[nH]ccc12)[C@H]1CC[C@H](CS(=O)(=O)N2CCC[C@H](C(N)=O)C2)CC1` [Example 59, 1-[({trans-4-[methyl(7H-pyrrolo[2,3-d]pyrimidin-4-yl)amino]cyclohexyl}methyl)-sulfonyl]piperidine-3-carboxamide], for which the IC50 in assay [2] stood at 222 nM; in assay [3] it was 6.45 nM.
On to `C[C@H]1CCCN1S(=O)(=O)C[C@H]1CC[C@H](N(C)c2ncnc3[nH]ccc23)CC1` [Example 86, N-methyl-N-(trans-4-{[(2-methylpyrrolidin-1-yl)-sulfonyl]methyl}cyclohexyl)-7H-pyrrolo[2,3-d]-pyrimidin-4-amine], for which the IC50 in assay [2] was determined as 457 nM; in assay [3], 6.47 nM.
With `CN(c1ncnc2[nH]ccc12)[C@H]1CC[C@H](CS(=O)(=O)N2CC[C@](C)(O)C2)CC1` [Example 99, 3-methyl-1-[({trans-4-[methyl(7H-pyrrolo[2,3-d]pyrimidin-4-yl)amino]cyclohexyl}methyl)-sulfonyl]pyrrolidin-3-ol], the IC50 in assay [2] was determined as 322 nM; in assay [3], 8.34 nM.
Consider `CN(c1ncnc2[nH]ccc12)[C@H]1CC[C@H](CS(=O)(=O)N2CCC[C@H]2CN2CCCC2)CC1` [Example 108, N-methyl-N-[trans-4-({[(2S)-2-(pyrrolidin-1-ylmethyl)pyrrolidin-1-yl]sulfonyl}methyl)cyclo-hexyl]-7H-pyrrolo[2,3-d]pyrimidin-4-amine], for which the IC50 came out at 813 nM in assay [2] and 4.73 nM in assay [3].
In the case of `CN(c1ncnc2[nH]ccc12)[C@H]1CC[C@H](CS(=O)(=O)N2CC(c3cccnc3)C2)CC1` [Example 111, N-methyl-N-(trans-4-{[(3-pyridin-3-ylazetidin-1-yl)sulfonyl]methyl}cyclo-hexyl)-7H-pyrrolo[2,3-d]pyrimidin-4-amine], the results for the IC50 in assay [2] and in assay [3] were 346 nM and 22.7 nM, respectively.
As to `CN(c1ncnc2[nH]ccc12)[C@H]1CC[C@H](CS(=O)(=O)N2CC(F)C2)CC1` [Example 112, N-(trans-4-{[(3-fluoroazetidin-1-yl)-sulfonyl]-methyl}-cyclohexyl)-N-methyl-7H-pyrrolo[2,3 d]pyrimidin-4-amine], the IC50 is 143 nM in assay [2] and 12.5 nM in assay [3].
For `CN(c1ncnc2[nH]ccc12)[C@H]1CC[C@H](CS(=O)(=O)N2CCS(=O)(=O)CC2)CC1` [Example 126, N-(trans-4-{[(1,1-dioxidothiomorpholin-4-yl)sulfonyl]methyl}cyclo-hexyl)-N-methyl-7H-pyrrolo[2,3-d]pyrimidin-4-amine] the same measures were 587 nM and 19.4 nM.
Take `C[C@@H]1C[C@@H](CS(=O)(=O)N2CCC(CO)CC2)CC[C@@H]1N(C)c1ncnc2[nH]ccc12` [Example 130, {1-[({(1S,3R,4S)-3-methyl-4-[methyl(7H-pyrrolo[2,3-d]pyrimidin-4-yl)amino]cyclohexyl}-methyl)sulfonyl]piperidin-4-yl}methanol]: the IC50 in assay [2] stood at 42.9 nM; in assay [3], 7.41 nM.
On to `C[C@@H]1C[C@@H](CS(=O)(=O)N2CC[C@@H](CO)C2)CC[C@@H]1N(C)c1ncnc2[nH]ccc12` [Example 132, {(3R)-1-[({(1S,3R,4S)-3-methyl-4-[methyl(7H-pyrrolo[2,3-d]pyrimidin-4-yl)amino]cyclohexyl}methyl)-sulfonyl]pyrrolidin-3-yl}methanol], for which the figures for the IC50 in assay [2] and in assay [3] were 51.2 nM and 6.5 nM, respectively.
`CC1CC(CS(=O)(=O)N2CC[C@H](CO)C2)CCC1N(C)c1ncnc2[nH]ccc12` (stereo partly drawn) [Example 133, ((3S)-1-((3-methyl-4-(methyl(7H-pyrrolo[2,3-d]pyrimidin-4-yl)amino)cyclohexyl)methylsulfonyl)pyrrolidin-3-yl)methanol]: the IC50 turned out to be 0.0421 nM in assay [2] and 0.00508 nM in assay [3].
In the case of `CN(c1ncnc2[nH]ccc12)[C@H]1CC[C@H](CS(=O)(=O)N2CCC(C)(O)C2)CC1` (stereo partly drawn) [Example 137, 3-methyl-1-[({trans-4-[methyl(7H-pyrrolo[2,3-d]pyrimidin-4-yl)amino]cyclohexyl}methyl)sulfonyl]pyrrolidin-3-ol], the IC50 in assay [2] amounted to 0.302 nM; in assay [3], 0.00777 nM.
